{"source": "paper PMC3641313", "about": "(Korean Journal of Pediatrics, 2013)", "key": {"[1]": {"tested_on": "influenza virus infection", "conditions": "treatment initiated within 48 hours of the onset of fever; cited from earlier work"}, "influenza": {"tested_on": "influenza", "format": "in vivo, pediatric patients", "conditions": "proven influenza patients group in the first study period and second study period"}}}
{"molecule": "CCOC(=O)C1=C[C@@H](OC(CC)CC)[C@H](NC(C)=O)[C@@H](N)C1", "note": "[Oseltamivir]", "values": [{"measurement": "average duration of fever after the initiation of oseltamivir treatment", "setting": "[1]", "value": 1.7, "unit": "days"}, {"measurement": "patients afebrile (<37.5℃) within one day", "setting": "[1]", "value": 44, "unit": "%"}, {"measurement": "patients recovered within two days", "setting": "[1]", "value": 86, "unit": "%"}, {"measurement": "admission duration, Group A compared with group B", "setting": "influenza", "value": "significant shorter"}, {"measurement": "frequency in pneumonia, Group A compared with group B", "setting": "influenza", "value": "lesser frequency"}]}
